Reference: US20070099841A1, “Prodrugs of T3 and T4 with enhanced bioavailability” (New River Pharmaceuticals Inc., priority 2005, published 2007)

Legend:
[1] = design: species or system Sprague-Dawley rats; details: rat, in vivo; for mean level of Total T3 at 1 hour post dose: po
Experimental: Compounds were tested in Sprague-dawley rats (˜250 g). Defined doses were delivered as oral solutions in 0.5% sodium bicarbonate buffer with T3 sodium salt containing 12 mcgT3/kg or triiodothyronine composition containing the equivalent amount of T3. Rats were dosed immediately following 0 hour serum collection. Serum was collected from rats at 2, 4, 6, 9, 12 and 24 hours after capsule delivery. Total serum T3 concentrations were determined by ELISA using a commercially available kit (Total Triiodothyronine (total T3) ELISA KIT, product #1700, ALPHA DIAGNOSTIC, San Antonio, Tex.). Total serum T4 concentrations were determined by ELISA using a commercially available kit (Total Thyronine (Total T4) ELISA KIT, product #1100, ALPHA DIAGNOSTIC, San Antonio, Tex.).
The general procedures described above were employed for the experimental data described below. These procedures are subject to minor variations in timing and weight of rats, etc.
(§1) T3 sodium, G-T3, V-T3, I-T3, Y-T3, A2-T3, P2-T3, or F2-T3 were administered at equimolar doses to Sprague-Dawley rats (12 μg/kg T3; HED˜120 μg T3 sodium; n=6, per group) that were hypothyroid due to removal of the thyroid gland approximately one week prior to evaluation. Serum was collected at 0 (pre-dose), 1, 2, 4, 6, 8 and 12 hours post-dose and analyzed for total T3 and TSH by chemiluminescent immunoassay (Immulite CIA). […] At 1 hour post dose the mean level of Total T3 was 327.3, 429.5, 432.7, 403.3, 431, and 433.1 ng/ml for G-T3, V-T3, I-T3, Y-T3, P2-T3, and F2-T3 dosed animals respectively as compared to 577 ng/ml for T3 sodium dosed animals. Applicants note that some variation in these values may be present as with A2-T3 (FIGS. 15 and 16).

TSH = assay: Serum TSH after oral administration to hypothyroid rats (chemiluminescent immunoassay); format: in vivo, Sprague-Dawley rats; details: for TSH, mean: mean n=6, oral 12 μg/kg T3; for TSH levels in response to administration: oral 12 μg/kg T3
Experimental: as §1

| SMILES | Total T3 AUC, % (of T3) [1] [%] | Total T3Δ dAUC, % (of T3) [1] [%] | Variability of T3 absorption compared with T3 sodium [1] | mean level of Total T3 at 1 hour post dose [1] [ng/mL] | TSH, mean (TSH; 0 h (pre-dose)) [μIU] | TSH, mean (TSH; 1 h) [μIU] | TSH, mean (TSH; 2 h) [μIU] | TSH, mean (TSH; 4 h) [μIU] | TSH, mean (TSH; 6 h) [μIU] | TSH, mean (TSH; 8 h) [μIU] | TSH, mean (TSH; 12 h) [μIU] | TSH levels in response to administration (TSH) |
| --- | --- | --- | --- | --- | --- | --- | --- | --- | --- | --- | --- | --- |
| CC(C)[C@H](N)C(=O)N[C@@H](Cc1cc(I)c(Oc2ccc(O)c(I)c2)c(I)c1)C(=O)O [V-T3] | 94.9 | 98.6 | decreased variability of T3 absorption | 429.5 | 2.309 | 2.212 | 1.123 | 0.282 | 0.174 | 0.175 | 0.54 | decreased rapidly |
| N[C@@H](Cc1ccc(O)cc1)C(=O)N[C@@H](Cc1cc(I)c(Oc2ccc(O)c(I)c2)c(I)c1)C(=O)O [Y-T3] | 95.5 | 100.4 | decreased variability of T3 absorption | 403.3 | 2.595 | 2.648 | 1.601 | 0.471 | 0.27 | 0.221 | 0.651 | decreased rapidly |
